For orientation: IC50 means the midpoint of a concentration-inhibition curve.

One experiment has as its target T1, human CCR2 (Homo sapiens, UniProt P41597).
T1 construct: host or cells: Chem-1 cell line
T1 sequence (P41597 1-360 isoform P41597-2): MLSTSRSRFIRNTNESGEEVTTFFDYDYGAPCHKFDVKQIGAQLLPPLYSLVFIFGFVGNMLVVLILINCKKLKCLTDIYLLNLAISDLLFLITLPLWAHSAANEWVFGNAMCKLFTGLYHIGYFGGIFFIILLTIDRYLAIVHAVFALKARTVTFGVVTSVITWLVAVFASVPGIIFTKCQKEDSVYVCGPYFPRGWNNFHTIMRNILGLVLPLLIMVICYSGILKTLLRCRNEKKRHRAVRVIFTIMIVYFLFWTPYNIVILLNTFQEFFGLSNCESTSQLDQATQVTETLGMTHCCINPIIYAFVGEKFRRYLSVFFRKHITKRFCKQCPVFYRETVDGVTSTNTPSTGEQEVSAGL
Put plainly: Functional Ca2+ release test (B-1). As to conditions: Chem-1 cell line transfected with human CCR2; 50% inhibition of the MCP-1 effect, MCP-1 at EC50 (about 5 nM); in some cases means of several determinations. It is filed as cell-based. As to the method: The antagonistic action of test substances on CCR2 was determined in a functional Ca^2+ release test. Binding of CCL2/MCP-1 to CCR2 leads to a change in the conformation of the receptor resulting in Gi/Gq protein activation and intracellular signal cascade. This involves, inter alia, an intracellular Ca^2+ release. The test cell used was a Chem-1 cell line transfected with human CCR2 (ChemiSCREEN™ CCR2B Calcium-Optimized FLIPR Cell Line, Merck Millipore).
(§1) The test substances were dissolved in dimethyl sulphoxide (DMSO) at a concentration of 10 mM and serially diluted with DMSO in steps of 1:3.16 for a 10-point dose/activity analysis. According to the desired test concentrations, the substances were pre-diluted in Tyrode with 2 mM CaCl2 and 0.05% BSA.
The cells, cultivated in DMEM high glucose [supplemented with 10% FCS, 1 mM pyruvate, 15 mM HEPES, 500 μg/ml geniticin and non-essential amino acids (NEAA)], were sown at 5000 cells/25 μl in 384 well, μCLEAR/black cell culture plates from Greiner (#781092) and incubated at 37° C. for 24 h. The sowing medium consisted of DMEM high glucose [supplemented with 5% FCS, 1 mM pyruvate, 15 mM HEPES, 50 U/ml penicillin, 50 μg/ml streptomycin and non-essential amino acids (NEAA)]. The medium was then removed and the cells were charged for 60 min at 37° C. with Fluo-4 dye [25 μl Tyrode with 3 μM Fluo-4 AM (1 mM DMSO stock solution), 0.4 mg/ml Brilliant Black, 2.5 mM probenicid, 0.03% Pluronic F-127]. The cells were pre-incubated for 10 min with 10 μl of the test substances diluted in buffer, and 20 μl of agonist solution (MCP-1 in Tyrode with 0.05% BSA) were then added. MCP-1 was employed at the concentration which corresponds to the EC50 which had been determined in a preliminary test (usually about 5 nM). Ca^2+ release was monitored over a period of 120 s in 1 s increments in a proprietary fluorescence imaging reader. The molar concentration of the test substance which caused 50% inhibition of the MCP-1 effect (IC50) was determined using a 4-parameter logistic function (Hill function).

The target of the next experiment is T2, murine CCR2 (Mus musculus, UniProt P51683).
T2 construct: host or cells: U2OS β-arrestin cell line
T2 sequence (P51683 whole entry): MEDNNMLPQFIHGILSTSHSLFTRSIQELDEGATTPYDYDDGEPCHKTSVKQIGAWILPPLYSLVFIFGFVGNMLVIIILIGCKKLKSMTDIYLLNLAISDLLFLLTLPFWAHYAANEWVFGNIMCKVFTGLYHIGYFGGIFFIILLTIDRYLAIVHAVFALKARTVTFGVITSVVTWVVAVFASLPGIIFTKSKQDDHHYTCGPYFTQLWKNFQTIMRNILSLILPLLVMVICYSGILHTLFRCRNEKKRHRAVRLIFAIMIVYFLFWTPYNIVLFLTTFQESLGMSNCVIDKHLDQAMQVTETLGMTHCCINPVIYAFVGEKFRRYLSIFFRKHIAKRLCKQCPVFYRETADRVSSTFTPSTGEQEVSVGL
Description: Functional β-arrestin recruiting test with murine MCP-1 (B-2b). It is filed as cell-based. Conditions: U2OS β-arrestin cell line transfected with murine CCR2; agonist murine MCP-1; in some cases means of several determinations. Here is the method:
The antagonistic action of test substances on CCR2 was determined in a β-arrestin test. The PathHunter β-arrestin GPCR test system (DiscoveRx Corporation, Ltd.) is a cell-based functional method for detecting binding of β-arrestin to an activated receptor. The molecular basis is a […] complementation measured by the enzymatic conversion of a chemiluminescent substrate. The test cell used was a U2OS β-arrestin cell line transfected with murine CCR2 (93-0543C3, DiscoveRx Corporation, Ltd.).
as §1
The cells, cultivated in MEM Eagle (supplemented with 10% FCS, 50 U/ml of penicillin, 50 μg/ml of streptomycin, 250 μg/ml of hygromycin and 500 μg/ml of geniticin), were sown at 2000 cells/25 μl in 384 well, μCLEAR/black cell culture plates from Greiner (#781092) and incubated at 37° C. for 24 h. The sowing medium consisted of Opti-MEM (supplemented with 1% FCS, 50 U/ml of penicillin and 50 μg/ml of streptomycin). The cells were pre-incubated for 10 min with 10 μl of the test substances diluted in buffer, and 10 μl of agonist solution [human MCP-1 (PeproTech, #300-04) in Tyrode with 0.05% BSA) were then added. The human MCP-1 was employed at the concentration which corresponds to the EC50 which had been determined in a preliminary test (usually about 3 nM). After 90 min of incubation at 37° C., the solution was removed, and recruitment of β-arrestin to CCR2 was detected with the aid of the PathHunter detection reagent (93-001, DiscoveRx Corporation, Ltd.) according to the instructions of the manufacturer. Luminescence was measured after an incubation time of 60 min using a proprietary luminescence imaging measuring instrument. The molar concentration of the test substance which caused 50% inhibition of the MCP-1 effect (IC50) was determined using a 4-parameter logistic function (Hill function).
The test was carried out in a manner identical to that described above under B-2a, but using murine MCP-1 (PeproTech, #250-10) as agonist.
Background: Recruitment of arrestin is a read-out of receptor activation apart from second messengers.

Regarding `CC(C)(C)Oc1ccnc(-c2nc(C(F)(F)F)c(Oc3ccc(Cl)c(Cl)c3)c(=O)[nH]2)c1` [Example 159, 2-(4-tert-butoxypyridin-2-yl)-5-(3,4-dichlorophenoxy)-6-(trifluoromethyl)pyrimidin-4(3H)-one], the IC50 was found to be 62 nM on human CCR2 and 2470 nM at murine CCR2.

Regarding `COc1csnc1-c1nc(C(F)(F)F)c(Oc2ccc(Cl)c(Cl)c2)c(=O)[nH]1` [Example 237], the IC50 was 1 nM against human CCR2 and 80 nM at murine CCR2.

With `O=c1[nH]c(-c2ccnnc2)nc(C(F)(F)F)c1Oc1ccc(Cl)c(C(F)(F)F)c1` [Example 129, 5-[4-chloro-3-(trifluoromethyl)phenoxy]-2-(pyridazin-4-yl)-6-(trifluoromethyl)pyrimidin-4(3H)-one], the values for the 50% inhibitory concentration (IC50) on human CCR2 and on murine CCR2 were 222 nM and 2710 nM, respectively.

`COc1c[nH]nc1-c1nc(C(F)(F)F)c(Oc2ccc(Cl)c(C(F)(F)F)c2)c(=O)[nH]1` [Example 214, 5-[4-chloro-3-(trifluoromethyl)phenoxy)-2-(4-methoxy-1H-pyrazol-3-yl)-6-(trifluoromethyl)pyrimidin-4(3H)-one]: the half-maximal inhibitory concentration (IC50) against human CCR2 was found to be 0.6 nM; on murine CCR2, 8.5 nM.

With `Cc1cnc(-c2nc(C(F)(F)F)c(Oc3ccc(Cl)c(Cl)c3)c(=O)[nH]2)[nH]1` [Example 241], the IC50 on human CCR2 was found to be 0.8 nM; at murine CCR2, 76 nM.

As to `COc1cccnc1-c1nc(C(F)(F)F)c(Oc2ccc(Cl)c(OC(F)(F)F)c2)c(=O)[nH]1` [Example 138], the concentration for half-maximal inhibition (IC50) at human CCR2 stood at 1.4 nM; on murine CCR2 it was 412 nM.

For `CSc1cccnc1-c1nc(C(F)(F)F)c(Oc2ccc(Cl)c(Cl)c2)c(=O)[nH]1` [Example 115, 5-(3,4-dichlorophenoxy)-2-[3-(methylsulphanyl)pyridin-2-yl]-6-(trifluoromethyl)pyrimidin-4(3H)-one], the IC50 was determined as 0.2 nM against human CCR2 and 7.6 nM at murine CCR2.

As to `Cc1ccc(-c2nc(C(F)(F)F)c(Oc3ccc(Cl)c(C(F)(F)F)c3)c(=O)[nH]2)nc1` [Example 193, 5-[4-chloro-3-(trifluoromethyl)phenoxy]-2-(5-methylpyridin-2-yl)-6-(trifluoromethyl)pyrimidin-4(3H)-one], the values for the IC50 on human CCR2 and at murine CCR2 were 0.7 nM and 79 nM, respectively.

Turning to `Nc1ncc(-c2nc(C(F)(F)F)c(Oc3ccc(Cl)c(C(F)(F)F)c3)c(=O)[nH]2)cn1` [Example 155, 2′-amino-5-[4-chloro-3-(trifluoromethyl)phenoxy]-6-(trifluoromethyl)-2,5′-bipyrimidin-4(3H)-one], the IC50 on human CCR2 turned out to be 23 nM; on murine CCR2, 1080 nM.

As to `O=c1[nH]c(-n2ncc3ncccc32)nc(C(F)(F)F)c1Oc1ccc(Cl)c(Cl)c1` [Example 258], the IC50 was 9.9 nM at human CCR2 and 949 nM on murine CCR2.

`COCc1cc(-c2nc(C(F)(F)F)c(Oc3ccc(Cl)c(Cl)c3)c(=O)[nH]2)no1` [Example 222]: the figures for the half-maximal inhibitory concentration (IC50) against human CCR2 and at murine CCR2 were 6.5 nM and 551 nM, respectively.

As for `O=c1[nH]c(-n2cnc(Cl)n2)nc(C(F)(F)F)c1Oc1ccc(Cl)c(Cl)c1` [Example 247], the concentration for half-maximal inhibition (IC50) on human CCR2 was found to be 123 nM; at murine CCR2, 5530 nM.

With `COc1ccnc(-c2nc(C(F)(F)F)c(Oc3ccc(Cl)c(C(F)(F)F)c3)c(=O)[nH]2)c1` [Example 152, 5-[4-chloro-3-(trifluoromethyl)phenoxy]-2-(4-methoxypyridin-2-yl)-6-(trifluoromethyl)pyrimidin-4(3H)-one], the 50% inhibitory concentration (IC50) against human CCR2 amounted to 8.2 nM; at murine CCR2, 838 nM.

For the compound `COc1cccnc1-c1nc(C(F)(F)F)c(Oc2ccc(C)c(Cl)c2)c(=O)[nH]1` [Example 196, 5-(3-chloro-4-methylphenoxy)-2-(3-methoxypyridin-2-yl)-6-(trifluoromethyl)pyrimidin-4(3H)-one], the IC50 against human CCR2 was 1.7 nM; on murine CCR2 it was 585 nM.

Regarding `CCc1cc(-c2nc(C(F)(F)F)c(Oc3ccc(Cl)c(Cl)c3)c(=O)[nH]2)no1` [Example 218], the 50% inhibitory concentration (IC50) at human CCR2 was found to be 3.9 nM; at murine CCR2, 584 nM.

Turning to `O=c1[nH]c(-c2ncccc2-c2ccccc2)nc(C(F)(F)F)c1Oc1ccc(Cl)c(Cl)c1` [Example 187, 5-(3,4-dichlorophenoxy)-2-(3-phenylpyridin-2-yl)-6-(trifluoromethyl)pyrimidin-4(3H)-one], the IC50 at human CCR2 came out at 16 nM; on murine CCR2 it was 1600 nM.

`CC(C)Oc1ccnc(-c2nc(C(F)(F)F)c(Oc3ccc(Cl)c(C(F)(F)F)c3)c(=O)[nH]2)c1` [Example 150, 5-[4-chloro-3-(trifluoromethyl)phenoxy]-2-(4-isopropoxypyridin-2-yl)-6-(trifluoromethyl)pyrimidin-4(3H)-one]: the half-maximal inhibitory concentration (IC50) at human CCR2 was 23 nM; on murine CCR2, 1340 nM.

Take `O=c1[nH]c(-c2ccsn2)nc(C(F)(F)F)c1Oc1ccc(Cl)c(C(F)(F)F)c1` [Example 234]: the half-inhibitory concentration (IC50) against human CCR2 came to 0.3 nM; at murine CCR2 it was 27 nM.

With `COc1conc1-c1nc(C(F)(F)F)c(Oc2ccc(Cl)c(C(F)(F)F)c2)c(=O)[nH]1` [Example 180, 5-[4-chloro-3-(trifluoromethyl)phenoxy]-2-(4-methoxy-1,2-oxazol-3-yl)-6-(trifluoromethyl)pyrimidin-4(3H)-one], the concentration for half-maximal inhibition (IC50) against human CCR2 was 1 nM; at murine CCR2, 105 nM.

Take `COc1ccnc(-c2nc(C(F)(F)F)c(Oc3ccc(Cl)c(Cl)c3)c(=O)[nH]2)c1` [Example 147, 5-(3,4-dichlorophenoxy)-2-(4-methoxypyridin-2-yl)-6-(trifluoromethyl)pyrimidin-4(3H)-one]: the IC50 against human CCR2 stood at 121 nM; at murine CCR2, 373 nM.

Take `O=c1[nH]c(-c2ccncc2Cl)nc(C(F)(F)F)c1Oc1ccc(Cl)c(C(F)(F)F)c1` [Example 131, 2-(3-chloropyridin-4-yl)-5-[4-chloro-3-(trifluoromethyl)phenoxy]-6-(trifluoromethyl)pyrimidin-4(3H)-one]: the IC50 came to 2.8 nM against human CCR2 and 158 nM at murine CCR2.

Take `O=c1[nH]c(-c2cnccn2)nc(C(F)(F)F)c1Oc1ccc(Cl)c(Cl)c1` [Example 127, 5-(3,4-dichlorophenoxy)-2-(pyrazin-2-yl)-6-(trifluoromethyl)pyrimidin-4(3H)-one]: the 50% inhibitory concentration (IC50) against human CCR2 turned out to be 2.1 nM; on murine CCR2, 372 nM.

With `O=c1[nH]c(-c2ncccc2Br)nc(C(F)(F)F)c1Oc1ccc(Cl)c(Cl)c1` [Example 181, 2-(3-bromopyridin-2-yl)-5-(3,4-dichlorophenoxy)-6-(trifluoromethyl)pyrimidin-4(3H)-one], the IC50 against human CCR2 amounted to 0.7 nM; at murine CCR2, 7.9 nM.

The values above are taken from patent publication US20160237059A1, “HETEROCYCLIC SUBSTITUTED TRIFLUOROMETHYL PYRIMIDINONES AND THEIR USE” (BAYER PHARMA AKTIENGESELLSCHAFT, priority 2013, published 2016).
